{"source": "patent US20230277508A1", "about": "“USE OF COMPOUND AS CYP2E1 INHIBITOR” (SHANGHAI LING XI BIOTECHNOLOGY DEVELOPMENT CO., LTD., priority 2020, published 2023)", "key": {"[1]": {"tested_on": "liver fibrosis in mice induced by a high-fat diet", "experiment": "Mouse liver fibrosis model induced by a high-fat diet", "format": "in vivo, C57/6J mice", "details": "SMI0 30 and 150 mg/kg ig daily, 26 weeks, vs model group", "procedure": "Experimental method: Male C57/6J mice were fed with a high-fructose, high-fat, and high-cholesterol feed to prepare mouse liver steatosis and hepatitis models, and a control group was fed with a low-fat and low-sugar control feed. An SMI0 intervention group was divided into a low-dose intervention group and a high-dose intervention group, which were intragastrically administered with the compound SMI0 at 30 mg/kg and 150 mg/kg every day from the beginning of modeling to the 26nd week of modeling. At the end of the 26-week experiment, blood was collected from the orbit, a body weight was measured, and then the mice each were sacrificed. The weight and appearance of a liver (color, texture, and presence or absence of nodules of the liver) were recorded. Some liver specimens were subjected to HE staining and then observed, and a steatosis score of mice in each group was recorded; and Masson staining was conducted to evaluate a liver fibrosis status of mice, and an oil red O staining area percentage was determined (model group, n=10 mice; SMI0 compound low-dose group, n=10 […]; and SMI0 compound high-dose group, n=10 […])."}, "[2]": {"tested_on": "blood glucose level in diabetes rats", "experiment": "Diabetes rat model induced by a high-fat diet and STZ", "format": "in vivo", "procedure": "Experimental method: A diabetes rat model was constructed by a high-fat diet+single intraperitoneal injection of STZ (40 mg/kg). A FBG level of higher than or equal to 16.7 mmol/L after two weeks of molding was a criterion for successful molding. Modeled rats were divided into various groups according to the blood glucose level. Rats in a model group were administered with NS, and rats in SMI0 low-dose and high-dose intervention groups were administered with the compound SMI0 at 30 mg/kg and 150 mg/kg every day, respectively. The FBG level in rats was determined and recorded regularly every week until the sixth week after administration. 10 rats were provided in each group."}}, "data": [{"smiles": "CC(=O)c1scnc1C", "note": "[SMI0]", "values": [{"measurement": "liver fibrosis level in mice induced by a high-fat diet", "setting": "[1]", "value": "significantly reduce"}, {"measurement": "FBG levels", "setting": "[2]; SMI0 low-dose (30 mg/kg) and high-dose (150 mg/kg) daily, weeks 5 and 6, vs model group, P<0.05", "value": "significantly reduced"}, {"measurement": "glucose tolerance", "setting": "[2]; glucose tolerance test, SMI0 30 and 150 mg/kg daily", "value": "significantly improved"}]}]}
